Test results: patent publication US20010044459A1, “Hydroxamic acid derivatives” (priority 1997, published 2001)
Where a SMILES comes first, the peptide text is derived from it.

What was measured:
NAALADase [1] = molecular target: NAALADase (Homo sapiens, UniProt Q04609); conditions: read-out: Km of NAALADase for NAAG; NAAG as substrate; cited from earlier work
cortical cell cultures = assay: In vitro toxicity of NAAG (LDH release); assay type: cell-based, rats; conditions: NAAG 3 μM for 20 minutes
Protocol: Experiments are performed after 21 days in cultures.
At the end of exposure, the cells are washed once with HEPES buffered saline solution and then replaced with serum free modified Earle's basal medium. The cultures are then returned to the CO2 incubator for 24 hour recovery.
This control measurement is subtracted from each experimental point.

NAALADase [2] = molecular target: NAALADase (Rattus norvegicus, UniProt P70627); assay: In vitro assay of NAALADase activity ([3H]Glu liberated from [3H]NAAG, synaptosomal protein); assay type: biochemical; conditions: compared with 2-(phosphonomethyl)pentanedioic acid
Protocol: Substrate and product were resolved by anion-exchange liquid chromatography. […] Quisqualate (100 μM) was included in parallel assay tubes to confirm the specificity of the measurements.

Sequence of NAALADase (Rattus norvegicus, UniProt P70627) (P70627 whole entry): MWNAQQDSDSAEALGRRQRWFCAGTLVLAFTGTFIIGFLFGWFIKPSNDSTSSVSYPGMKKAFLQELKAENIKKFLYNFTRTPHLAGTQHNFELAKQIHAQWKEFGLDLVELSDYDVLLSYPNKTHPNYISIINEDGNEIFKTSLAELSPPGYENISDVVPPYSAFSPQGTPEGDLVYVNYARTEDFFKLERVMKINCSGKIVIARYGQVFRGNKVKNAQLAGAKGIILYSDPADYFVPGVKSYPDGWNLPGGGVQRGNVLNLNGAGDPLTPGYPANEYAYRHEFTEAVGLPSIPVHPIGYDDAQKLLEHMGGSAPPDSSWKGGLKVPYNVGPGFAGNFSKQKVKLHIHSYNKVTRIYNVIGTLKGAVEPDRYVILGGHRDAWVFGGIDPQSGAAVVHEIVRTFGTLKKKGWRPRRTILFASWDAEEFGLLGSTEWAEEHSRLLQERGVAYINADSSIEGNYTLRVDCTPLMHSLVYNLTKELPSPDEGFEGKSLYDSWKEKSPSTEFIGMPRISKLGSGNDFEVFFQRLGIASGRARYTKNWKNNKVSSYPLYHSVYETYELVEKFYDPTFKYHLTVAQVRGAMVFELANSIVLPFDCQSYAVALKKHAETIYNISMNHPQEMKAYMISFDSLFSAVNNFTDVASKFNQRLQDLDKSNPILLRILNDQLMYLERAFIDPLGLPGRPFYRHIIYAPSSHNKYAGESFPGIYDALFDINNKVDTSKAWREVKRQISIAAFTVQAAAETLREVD
Sequence of NAALADase (Homo sapiens, UniProt Q04609) (Q04609 whole entry): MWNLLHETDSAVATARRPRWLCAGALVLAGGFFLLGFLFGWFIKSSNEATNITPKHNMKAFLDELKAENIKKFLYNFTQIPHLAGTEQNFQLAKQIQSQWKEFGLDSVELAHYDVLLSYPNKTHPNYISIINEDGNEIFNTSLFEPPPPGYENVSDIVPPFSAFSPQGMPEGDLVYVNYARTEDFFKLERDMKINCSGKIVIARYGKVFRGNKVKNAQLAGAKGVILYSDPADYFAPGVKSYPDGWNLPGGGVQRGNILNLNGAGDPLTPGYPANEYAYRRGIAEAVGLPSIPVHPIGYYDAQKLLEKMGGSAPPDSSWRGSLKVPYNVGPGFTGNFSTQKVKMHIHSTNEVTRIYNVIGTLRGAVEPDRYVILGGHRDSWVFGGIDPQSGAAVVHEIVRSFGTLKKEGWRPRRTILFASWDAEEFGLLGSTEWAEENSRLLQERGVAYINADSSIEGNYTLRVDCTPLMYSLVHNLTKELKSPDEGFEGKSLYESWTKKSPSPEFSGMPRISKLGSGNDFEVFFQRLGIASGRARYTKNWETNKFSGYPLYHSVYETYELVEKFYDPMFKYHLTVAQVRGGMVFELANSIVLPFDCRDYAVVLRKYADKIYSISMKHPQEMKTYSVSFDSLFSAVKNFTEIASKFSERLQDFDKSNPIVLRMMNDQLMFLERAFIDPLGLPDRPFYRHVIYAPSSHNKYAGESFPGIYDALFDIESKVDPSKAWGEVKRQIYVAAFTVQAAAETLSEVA

Row | SMILES | Km (NAALADase [1]) | % Toxicity (cortical cell cultures) | NAALADase inhibiting activity (in words, by comparison) (NAALADase [2])
1 | CC(=O)N[C@@H](CC(=O)O)C(=O)N[C@@H](CCC(=O)O)C(=O)O [NAAG, N-acetyl-aspartyl-glutamate] (Ac-Asp-Glu-OH) | 0.54 µM | 3.51% | –
2 | O=C(O)CC(CP(=O)(O)O)C(=O)O (stereo not shown) [2-(phosphonomethyl)succinic acid] | – | – | much lower NAALADase inhibiting activity
3 | O=C(O)CCC(CP(=O)(O)CCC(=O)O)C(=O)O (stereo not shown) [2-[[2-carboxyethyl)hydroxyphosphinol]methyl]pentanedioic acid] | – | – | lower NAALADase inhibiting activity
